Reference: patent publication US20100179225A1, “POI Prevention” (CYTOKINE PHARMASCIENCES, INC., priority 2008, published 2010)

What was measured:
[1] = test system: Lewis rats; experiment: Intestinal injury (Park score) after syngeneic orthotopic small intestinal transplantation; format: in vivo; conditions: 1 mg/kg i.v. to donor and recipient
Description: (§1) Syngeneic orthotopic small intestinal transplantation was performed in Lewis rats as previously described (Schwarz N T, Nakao A, Nalesnik M A, Kalff J C, Murase N, Bauer A J. Protective effects of ex vivo graft radiation and tacrolimus on syngeneic transplanted rat small bowel motility. Surgery 2002; 131: 413-423). […] Then the graft vascular bed was perfused with chilled UW solution (University of Wisconcin) and the intestinal lumen was irrigated with 50 ml cold 0.9% NaCl solution containing […]. neomycin sulfate (Uro Nebacetin N, Nycomed, Germany). The graft was stored in cold UW solution during the preparation of the recipient. An end-to-side anastomosis between the graft aorta and the recipient infra-renal aorta, and between the graft vein and recipient vena cava, was performed. Approximately 80% of the recipient intestine was removed and enteric continuity was restored by proximal and distal end-to-end intestinal anastomoses. […]
Histological changes and intestinal injury were graded by determination of the Park score 3 and 18 hours after reperfusion. […] Probes were analyzed in a blinded way.
Syngeneic orthotopic small intestinal transplantation was performed as described above and histological changes and intestinal injury were graded by determination of the Park score 3 and 18 hours after reperfusion. […] Probes were analyzed in a blinded way.

[2] = test system: ED1 positive cells; experiment: ED1 positive cell (monocyte/macrophage) infiltration into graft muscularis after small intestinal transplantation; format: in vivo, Lewis rats; conditions: 1 mg/kg i.v.; 18 h after reperfusion
Description: as §1, with “performed.” for “performed. Approximately 80% of the recipient intestine was removed and enteric continuity was restored by proximal and distal end-to-end intestinal anastomoses.”
ED1 and MPO+-cells were counted under a microscope (TE-2000, Nikon, Duesseldorf, Germany) in 5 randomly chosen areas in each specimen.
In order to evaluate cell populations which are known to be associated with inflammation processes and to initiate immunological processes within the muscularis, leukocyte infiltrates were evaluated after 18 h by MPO histochemistry (polymorphonuclear neutrophils) and ED1 immunohistochemistry (monocytes and passenger macrophages). […]

[3] = test system: swine; experiment: Intestinal anastomotic healing in swine (bursting pressure, hydroxyproline content); format: in vivo; conditions: 1 mg/kg p.o. 14 hours and 3 hours, or once 2 hours (iv group), before operation, postoperative day 6
Description: Swine were fed with 1 mg/kg CPSI-2364 or placebo (2.5% mannitol) 14 hours and 3 hours before operation. In the iv group, 1 mg/kg CPSI 2364 was fed once 2 hours before operation. After premedication animals were intubated and a central venous catheter was applied. A laparotomy was performed under sterile conditions.

[4] = test system: p38-MAPK; experiment: p38-MAPK activation in CSF-1 mutant op−/− mice (Pathscan-Phospho-p38α-ELISA); format: in vivo; conditions: 5 mg/kg i.v. preoperative, 20 minutes after IM, mean±SEM
Text: Male C57BL/6J mice ([…] bodyweight) were obtained from Harlan-Winkelmann (Borchen, Germany). CSF-1 mutant op−/− mice (strain B6C3Fe a/a-Csf1op) and populations of unknown heterozygous or wildtype genotype (op+/?) of mixed gender were used at an age of 6 weeks and bred as described before (Wehner S, Behrendt F F, Lyutenski B N et al. Inhibition of macrophage function prevents intestinal inflammation and postoperative ileus in rodents. Gut 2007; 56:176-185). op−/− mice were phenotyped by the absence of incisors at day P10. All experiments were performed in accordance with the federal law regarding the protection of animals. The principles of laboratory animal care were followed. Animals were maintained on a 12-hour light/dark cycle and provided with commercially available rodent chow and tap water ad libitum.
p38-MAPK phosphorylation was evaluated in unoperated homozygous colony stimulating factor-1 mutant mice (op−/−) mice, or in op−/− and op+/? mice (a mixed population of unknown heterozygous +/− or homozygous +/+ wildtype mice) 20 minutes after IM. […] Additionally, CNI-1493 (5 mg/kg) pretreated op−/− mice were analyzed. In this experiment, p38-MAPK phosphorylation was quantified by the Pathscan-Phospho-p38α-ELISA following manufacturer's instructions. Phospho-p38 content of each probe was determined in duplicate from lysates with 6.25 μg total protein content.

SMILES	Park's score ([1]; 3 hours after reperfusion)	Park's score ([1]; 18 hours after reperfusion)	ED1 positive cells in muscularis [2]	anastomotic bursting pressure levels vs placebo [3]	anastomotic hydroxyproline content vs placebo [3]	p38-MAPK phosphorylation levels (phospho-p38 ELISA) [4]
C/C(=N\N=C(N)N)c1cc(NC(=O)CCCCCCCCC(=O)Nc2cc(/C(C)=N/N=C(N)N)cc(/C(C)=N/N=C(N)N)c2)cc(/C(C)=N/N=C(N)N)c1.CS(=O)(=O)O.CS(=O)(=O)O.CS(=O)(=O)O.CS(=O)(=O)O [CPSI-2364]	1.83	1.5	54.8 cells/field of view (magnification 200×)	No differences were observed	No differences were observed	–
C/C(=N\N=C(N)N)c1cc(NC(=O)CCCCCCCCC(=O)Nc2cc(/C(C)=N/N=C(N)N)cc(/C(C)=N/N=C(N)N)c2)cc(/C(C)=N/N=C(N)N)c1.Cl.Cl.Cl.Cl [CNI-1493]	–	–	–	–	–	3.24±0.66
